In US20240215579A1, “USE OF ANTI-CLOTTING COMPOUNDS AS RODENTICIDES” (priority 2021, published 2024):

Tested on: pest rodents
Assay: Pest rodent bait compositions in standard chow: mortality
Type: in vivo, rats
Description: The basic bait composition (standard chow) used consisted of 65% maize, 25% oat flakes, […], 3% refined finely granulated sugar, and 1% fine table salt.
The Pgp inhibitors were used at the following listed concentration.

C[C@@H](c1ncncc1F)[C@](O)(Cn1cncn1)c1ccc(F)cc1F [voriconazole]
Mortality in words, Pgp inhibitor combined with active clotting inhibitors (bait, combination with different active clotting inhibitors): high mortality
Efficacy as Pgp inhibitor in the context of the invention (compared to other Pgp inhibiting substances): highly effective
